Read-outs that look alike come from different tables or passages of the source.
Legend:
[1] = system: p-IKKa levels in L363 (NIK translocated multiple myeloma) cells; test: Effect of compounds on p-IKKa levels in L363 (NIK translocated multiple myeloma) cells (AlphaLISA SureFire Ultra p-IKKa Ser176/180); assay type: cell-based, human; conditions: average if tested more than once, read-out: Assay 2 IC50
Experimental: Assay 2: Effect of Compounds on p-IKKa Levels in L363 (NIK Translocated Multiple Myeloma) Cells
All compounds tested were dissolved and serially diluted in DMSO, 1:3 dilution for 11 points in an Echo compatible plate. 100% DMSO was added to columns 12 and 24 of the plate to serve as high and low signal controls. This compound plate was used to spot 20 nL of compound or DMSO into a Greiner 384 well TC plate (781080). The final DMSO concentration was 0.3% (v/v) in cell assays. Human L363 cells (ATCC) were cultured in RPM11640 medium supplemented with GlutaMax, non-essential amino acids, sodium pyruvate and 10% fetal bovine serum. Cells were routinely maintained at densities of 0.2×10^6 cells per ml-2×10^6 cells per mL at 37° C. in a humidified 5% CO2 atmosphere incubator. Cells were passaged twice a week splitting back to obtain the low density. The day before the assay, cells were washed twice in HBSS (Hank's Balanced Salt Solution), resuspended in Dulbecco's Modified Eagle Medium (DMEM)+0.5% IgG and protease free BSA (Jackson Immuno Research Laboratories), +/−250 ng/ml recombinant human B-cell activating factor (BAFF/BLyS/TNFSF13B) and incubated overnight at 37° C. in a humidified 5% CO2 atmosphere (bulk stimulation with or without BAFF). The next day, the cell concentration was adjusted to 1×10^7 cells/ml in DMEM+/−250 ng/ml BAFF+/−10 μM MG132 and plated at 10 μl/well into compound or DMSO spotted 384 well TC plates. Seeded cells were incubated at 37° C. in a humidified 5% CO2 atmosphere for 6 h. After 6 h, the plates were removed from the incubator and cell lysis was achieved by the addition of 2.5 μl 5× lysis buffer containing protease and phosphatase inhibitors, followed by shaking on a plate shaker at room temperature for 15 min. At the end of this incubation, lysed cells were sequentially treated and incubated with acceptor and donor bead mixes according to the manufacturer's protocol for a 1 plate/2-incubation suspension cell assay (AlphaLISA SureFire Ultra p-IKKa (Ser 176/180) Assay Kit (Perkin Elmer). Plates were read using an EnVision Multilabel Plate Reader (Perkin Elmer). Within an experiment, a concentration response curve for each compound was run in duplicate. The signal obtained in the test wells was normalized using high signal (BAFF stimulated cells, DMSO, MG132) and low signal (unstimulated cells, DMSO) controls. To determine the IC50, a sigmoidal curve was fitted to the plot of % inhibition versus Log10 compound concentration.

[2] = target: Recombinant Human NF-kappaB-Inducing Kinase (NIK/MAP3K14) (Homo sapiens, UniProt Q99558); test: Inhibition of auto-phosphorylation of recombinant human NIK/MAP3K14 activity (AlphaScreen); assay type: biochemical; conditions: 5 μM ATP, 1 nM NIK, average if tested more than once
Experimental: Assay 1: Inhibition of Auto-Phosphorylation of Recombinant Human NF-kappaB-Inducing Kinase (NIK/MAP3K14) Activity (AlphaScreen™)
NIK/MAP3K14 auto-phosphorylation activity was measured using the AlphaScreen™ (αscreen) format (Perkin Elmer). All compounds tested were dissolved in dimethyl sulfoxide (DMSO) and further dilutions were made in assay buffer. The final DMSO concentration was 0.7% (v/v) in assays. The assay buffer was 50 mM Tris pH 7.5 containing 1 mM EGTA (ethylene glycol tetraacetic acid), 1 mM DTT (dithiothreitol), 0.1 mM Na3VO4, 5 mM MgCl2, and 0.01% Tween®20. The assays were carried out in 384 well Proxiplates (Perkin Elmer). The incubations consisted of the compound, 5 μM Adenosine-5′-triphosphate (ATP), and 1 nM NIK/MAP3K14. Incubations were initiated by the addition of GST-tagged NIK/MAP3K14 enzyme, carried out for 2 h at 25° C. and terminated by addition of stop buffer containing anti-phospho-IKK Ser176/180 antibody. Protein A Acceptor and Glutathione-Donor beads were added before reading using an EnVision Multilabel Plate Reader (Perkin Elmer). The signal obtained in the wells was normalized using high (full enzyme activity, 0.7% DMSO) and low controls (no enzyme activity, 0.7% DMSO, no ATP). IC50's were determined by fitting a sigmoidal curve to % inhibition of control versus Log10 compound concentration.

[3] = Homo sapiens, L-363, p-IKKa levels in L363 cells

Chain of Recombinant Human NF-kappaB-Inducing Kinase (NIK/MAP3K14) (Q99558 whole entry): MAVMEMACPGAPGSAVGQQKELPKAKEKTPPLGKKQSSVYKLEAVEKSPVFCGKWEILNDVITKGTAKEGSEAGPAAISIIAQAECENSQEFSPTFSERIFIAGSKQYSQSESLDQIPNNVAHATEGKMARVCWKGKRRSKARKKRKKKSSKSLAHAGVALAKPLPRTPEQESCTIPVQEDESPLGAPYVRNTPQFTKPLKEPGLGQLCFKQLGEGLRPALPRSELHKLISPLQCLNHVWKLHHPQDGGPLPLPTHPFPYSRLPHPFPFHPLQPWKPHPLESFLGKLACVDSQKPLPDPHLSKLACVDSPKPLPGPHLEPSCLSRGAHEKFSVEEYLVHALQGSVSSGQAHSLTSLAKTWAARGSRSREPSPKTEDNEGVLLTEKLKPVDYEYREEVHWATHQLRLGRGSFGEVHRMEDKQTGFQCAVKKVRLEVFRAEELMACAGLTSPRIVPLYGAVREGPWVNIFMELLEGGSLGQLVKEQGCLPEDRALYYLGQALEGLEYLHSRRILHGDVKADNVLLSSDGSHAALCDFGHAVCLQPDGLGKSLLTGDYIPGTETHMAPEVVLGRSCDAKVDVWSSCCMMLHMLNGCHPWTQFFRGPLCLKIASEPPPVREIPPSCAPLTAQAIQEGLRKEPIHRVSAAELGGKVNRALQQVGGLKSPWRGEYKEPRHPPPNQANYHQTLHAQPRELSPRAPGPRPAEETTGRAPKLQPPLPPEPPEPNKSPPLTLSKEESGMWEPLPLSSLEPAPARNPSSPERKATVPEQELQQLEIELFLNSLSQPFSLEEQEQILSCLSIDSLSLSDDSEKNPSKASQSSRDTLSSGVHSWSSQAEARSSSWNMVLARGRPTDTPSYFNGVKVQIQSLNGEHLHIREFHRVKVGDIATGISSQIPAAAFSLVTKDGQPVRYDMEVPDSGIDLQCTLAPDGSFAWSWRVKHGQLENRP

| Molecule | IC50 [1, 3] | IC50 [2] | IC50 ([1]; p-IKKa levels in L363 cells) |
| --- | --- | --- | --- |
| CN1CC[C@@](O)(c2cccc(-c3nc(-c4ccnc(Nc5ccnn5CC(F)F)n4)cs3)c2)C1=O [Example 278, (R)-3-(3-(4-(2-((1-(2,2-Difluoroethyl)-1H-pyrazol-5-yl)amino)pyrimidin-4-yl)thiazol-2-yl)phenyl)-3-hydroxy-1-methylpyrrolidin-2-one] | > 0.501 µM | 0.1 to 0.5 µM |  |
| CN1CC[C@@](O)(c2cccc(-c3nc(-c4ccnc(NCCn5cccn5)n4)cs3)c2)C1=O [Example 198] | > 0.501 µM | 0.1 to 0.5 µM |  |
| CN1CC[C@@](O)(c2cncc(-c3ccn(-c4ccnc(Nc5cnn6cccnc56)n4)n3)c2)C1=O (single isomer, unassigned) [Example 148, (R)-3-hydroxy-1-methyl-3-(5-(1-(2-(pyrazolo[1,5-a]pyrimidin-3-ylamino)pyrimidin-4-yl)-1H-pyrazol-3-yl)pyridin-3-yl)pyrrolidin-2-one or (S)-3-hydroxy-1-methyl-3-(5-(1-(2-(pyrazolo[1,5-a]pyrimidin-3-ylamino)pyrimidin-4-yl)-1H-pyrazol-3-yl)pyridin-3-yl)pyrrolidin-2-one] | > 0.501 µM | < 0.1 µM |  |
| CNC(=O)c1cc(Nc2nccc(-c3csc(-c4cccc([C@]5(O)CCN(C)C5=O)c4)n3)n2)n(CC(C)C)n1 [Example 13, (R)-5-((4-(2-(3-(3-Hydroxy-1-methyl-2-oxopyrrolidin-3-yl)phenyl)thiazol-4-yl)pyrimidin-2-yl)amino)-1-isobutyl-N-methyl-1H-pyrazole-3-carboxamide] | 0.1 to 0.5 µM | < 0.1 µM |  |
| Cc1cnoc1Nc1nccc(-c2csc(-c3cccc([C@]4(O)CCN(C)C4=O)c3)n2)n1 [Example 274, (R)-3-Hydroxy-1-methyl-3-(3-(4-(2-((4-methylisoxazol-5-yl)amino)pyrimidin-4-yl)thiazol-2-yl)phenyl)pyrrolidin-2-one] | > 0.501 µM | > 0.501 µM |  |
| CCn1cc(Nc2nccc(-c3csc(-c4cccc([C@]5(O)CCN(C)C5=O)c4)n3)n2)c(OC)n1 [Example 103, (R)-3-(3-(4-(2-((1-ethyl-3-methoxy-1H-pyrazol-4-yl)amino)pyrimidin-4-yl)thiazol-2-yl)phenyl)-3-hydroxy-1-methylpyrrolidin-2-one] | 0.1 to 0.5 µM | < 0.1 µM |  |
| CN1CC[C@@](O)(c2cccc(-c3nc(-c4ccnc(NC5(CO)CCC5)n4)cs3)c2)C1=O [Example 191] | > 0.501 µM | < 0.1 µM |  |
| CN1CC[C@@](O)(c2cccc(-c3nc(-c4ccnc(NCCCOCC(F)(F)F)n4)cs3)c2)C1=O [Example 238] | > 0.501 µM | 0.1 to 0.5 µM |  |
| CN1CC[C@@](O)(c2cccc(-c3nc(-c4ccnc(N[C@H]5CC[C@@H](C#N)CC5)n4)cs3)c2)C1=O [Example 243] | > 0.501 µM | < 0.1 µM |  |
| C[C@@H](Nc1nccc(-c2csc(-c3cccc([C@]4(O)CCN(C)C4=O)c3)n2)n1)c1cn[nH]c1 (single isomer, unassigned) [Example 293] |  | < 0.1 µM | 0.1 to 0.5 µM |
| CC(Nc1nccc(-c2nc(-c3cccc(C4(O)CCN(C)C4=O)c3)cs2)n1)c1cc[nH]n1 (single isomer, unassigned) [Example 42] |  | < 0.1 µM | > 0.501 µM |
| CC(Nc1nccc(-c2csc(-c3cccc([C@]4(O)CCN(C)C4=O)c3)n2)n1)c1ccnn1C (stereo partly drawn) [Example 119, (R)-3-hydroxy-1-methyl-3-(3-(4-(2-(((R,S)-1-(1-methyl-1H-pyrazol-5-yl)ethyl)amino)pyrimidin-4-yl)thiazol-2-yl)phenyl)pyrrolidin-2-one] | 0.1 to 0.5 µM | < 0.1 µM |  |
| CN1CC[C@@](O)(c2cccc(-c3nc(-c4ccnc(NC5CCC(F)(F)CC5)n4)cs3)c2)C1=O [Example 241] | > 0.501 µM | < 0.1 µM |  |
| COc1cccnc1Nc1nccc(-c2csc(-c3cccc([C@]4(O)CCN(C)C4=O)c3)n2)n1 [Example 161, (R)-3-Hydroxy-3-(3-(4-(2-((3-methoxypyridin-2-yl)amino)pyrimidin-4-yl)thiazol-2-yl)phenyl)-1-methylpyrrolidin-2-one] | > 0.501 µM | > 0.501 µM |  |
| Cc1cccc(Nc2nccc(-c3csc(-c4cccc([C@]5(O)CCN(C)C5=O)c4)n3)n2)n1 [Example 48, (R)-3-hydroxy-1-methyl-3-(3-(4-(2-((6-methylpyridin-2-yl)amino)pyrimidin-4-yl)thiazol-2-yl)phenyl)pyrrolidin-2-one] | > 0.501 µM | < 0.1 µM |  |
| CN1CC[C@@](O)(c2cccc(-c3nc(-c4ccnc(NCc5ccn(C)n5)n4)cs3)c2)C1=O [Example 184] | > 0.501 µM | < 0.1 µM |  |
| Cc1ccc(CNc2nccc(-c3csc(-c4cccc([C@]5(O)CCN(C)C5=O)c4)n3)n2)nc1 [Example 203] | > 0.501 µM | < 0.1 µM |  |
| CN1CC[C@@](O)(c2cccc(-c3nc(-c4ccnc(Nc5ncccc5F)n4)cs3)c2)C1=O [Example 163, (R)-3-(3-(4-(2-((3-Fluoropyridin-2-yl)amino)pyrimidin-4-yl)thiazol-2-yl)phenyl)-3-hydroxy-1-methylpyrrolidin-2-one] | > 0.501 µM | 0.1 to 0.5 µM |  |
| (trans)-3-hydroxy-1-methyl-3-(3-(4-(2-((1-methyl-1H-pyrazol-3-yl)amino)pyrimidin-4-yl)thiazol-2-yl)phenyl)-5-(trifluoromethyl)pyrrolidin-2-one [Example 37] |  | > 0.501 µM | > 0.501 µM |
| CC(C)n1cc(Nc2nccc(-c3csc(-c4cccc([C@]5(O)CCN(C)C5=O)c4)n3)n2)cn1 [Example 276, (R)-3-Hydroxy-3-(3-(4-(2-((1-isopropyl-1H-pyrazol-4-yl)amino)pyrimidin-4-yl)thiazol-2-yl)phenyl)-1-methylpyrrolidin-2-one] | < 0.1 µM | < 0.1 µM |  |
| CN1CC[C@@](O)(c2cccc(-c3nc(-c4ccnc(NC5[C@@H]6COC[C@@H]56)n4)cs3)c2)C1=O (stereo partly drawn) [Example 115, (R)-3-(3-(4-(2-(((1R,5R)-3-oxabicyclo[3.1.0]hexan-6-yl)amino)pyrimidin-4-yl)thiazol-2-yl)phenyl)-3-hydroxy-1-methylpyrrolidin-2-one] | > 0.501 µM | 0.1 to 0.5 µM |  |
| CN1CC[C@@](O)(c2cccc(-c3nc(-c4ccnc(Nc5ccnn5C)n4)cs3)c2)C1=O [Example 176] | < 0.1 µM | < 0.1 µM |  |
| CCCn1ccc(Nc2nccc(-c3csc(-c4cccc([C@]5(O)CCN(C)C5=O)c4)n3)n2)n1 [Example 67, (R)-3-hydroxy-1-methyl-3-(3-(4-(2-((1-propyl-1H-pyrazol-3-yl)amino)pyrimidin-4-yl)thiazol-2-yl)phenyl)pyrrolidin-2-one] | 0.1 to 0.5 µM | < 0.1 µM |  |
| CN1CC[C@@](O)(c2ccnc(-c3csc(-c4ccnc(Nc5ccnn5C)n4)n3)c2)C1=O (single isomer, unassigned) [Example 144, (R)-3-hydroxy-1-methyl-3-(2-(2-(2-((1-methyl-1H-pyrazol-5-yl)amino)pyrimidin-4-yl)thiazol-4-yl)pyridin-4-yl)pyrrolidin-2-one or (S)-3-hydroxy-1-methyl-3-(2-(2-(2-((1-methyl-1H-pyrazol-5-yl)amino)pyrimidin-4-yl)thiazol-4-yl)pyridin-4-yl)pyrrolidin-2-one] | 0.1 to 0.5 µM | < 0.1 µM |  |

— patent US20250304567A1, “PYRROLIDIONE DERIVATIVES AS INHIBITORS OF NF KAPPA B INDUCING KINASE” (priority 2022, published 2025)
